Assay results: publication PMC4704194, “Structural Basis of Metallo-β-Lactamase Inhibition by Captopril Stereoisomers” (Antimicrobial Agents and Chemotherapy, 2015)
≈ marks a conversion by molar mass, not a printed value.

How the values were obtained:
[1] = test system: E. coli J53 + VIM-2 clone; test: MIC, broth microdilution; assay type: cell-based, Escherichia coli; conditions: captopril where added at 8 mg/liter
Description: (§1) The bacteria used were nonclonal international isolates whose mechanisms of carbapenem resistance have been defined genetically by sequencing. E. coli ATCC 25922 was used as a negative control. MBL genes were obtained by PCR using standard procedures and were inserted into a pK18 vector which was used to transform E. coli J53 ([34]). Transconjugants were obtained with MBL genes carried on native wild-type plasmids conjugated into J53 ([35]). Both transformants and transconjugants were confirmed by DNA sequencing and verified for MBL production by using MTS MBL strips (Liofilchem, Roseto, Italy). Additionally, 5 Escherichia coli (with NDM-1), 10 Klebsiella pneumoniae (5 with NDM-1, 3 with VIM-4, and 2 with IMP-4), 1 Serratia marcescens (with IMP-4), and 2 Pseudomonas aeruginosa (with VIM-2 and AIM-1) isolates and E. coli ATCC 25922 were used in the test panel. MICs were determined using the broth microdilution method according to CLSI guidelines. Strains were cultured and tested in cation-adjusted Mueller-Hinton agar and broth (Becton Dickinson).

[2] = test system: E. coli J53 + IMP-1 clone; test: MIC, broth microdilution; assay type: cell-based, Escherichia coli; conditions: captopril where added at 8 mg/liter
Description: as §1

[3] = test system: E. coli J53 + NDM-1 clone; test: MIC, broth microdilution; assay type: cell-based, Escherichia coli; conditions: captopril where added at 8 mg/liter
Description: as §1

[4] = test system: E. coli J53 + VIM-2 transconjugant; test: MIC, broth microdilution; assay type: cell-based, Escherichia coli; conditions: captopril where added at 8 mg/liter
Description: as §1

[5] = test system: E. coli J53 + NDM-1 transconjugant; test: MIC, broth microdilution; assay type: cell-based, Escherichia coli; conditions: captopril where added at 8 mg/liter
Description: as §1, with “E. coli ATCC 25922 was used as a negative control.” left out, “Additionally, 5 Escherichia coli (with NDM-1), 10 Klebsiella pneumoniae (5 with NDM-1, 3 with VIM-4, and 2 with IMP-4), 1 Serratia marcescens (with IMP-4), and 2 Pseudomonas aeruginosa (with VIM-2 and AIM-1) isolates and E. coli ATCC 25922 were used in the test panel.” left out

[6] = biological target: hydroxyacylglutathione hydrolase, human glyoxylase II (hHAGH) (Homo sapiens, UniProt Q16775); test: Inhibition assay, hHAGH; assay type: biochemical; conditions: at 100 μM, standard assay conditions
Description: (§2) Kinetic and inhibition assays with the bacterial MBLs, human angiotensin-converting enzyme 2 (hACE-2), and hydroxyacylglutathione hydrolase, human glyoxylase II (hHAGH), were performed as described previously ([7], [27]).

DCLRE1A = biological target: T1, DCLRE1A (Homo sapiens, UniProt Q6PJP8); test: Nuclease assay, DCLRE1A; conditions: at 100 μM, standard assay conditions
T1 sequence (Q6PJP8 608-1040 limits assumed): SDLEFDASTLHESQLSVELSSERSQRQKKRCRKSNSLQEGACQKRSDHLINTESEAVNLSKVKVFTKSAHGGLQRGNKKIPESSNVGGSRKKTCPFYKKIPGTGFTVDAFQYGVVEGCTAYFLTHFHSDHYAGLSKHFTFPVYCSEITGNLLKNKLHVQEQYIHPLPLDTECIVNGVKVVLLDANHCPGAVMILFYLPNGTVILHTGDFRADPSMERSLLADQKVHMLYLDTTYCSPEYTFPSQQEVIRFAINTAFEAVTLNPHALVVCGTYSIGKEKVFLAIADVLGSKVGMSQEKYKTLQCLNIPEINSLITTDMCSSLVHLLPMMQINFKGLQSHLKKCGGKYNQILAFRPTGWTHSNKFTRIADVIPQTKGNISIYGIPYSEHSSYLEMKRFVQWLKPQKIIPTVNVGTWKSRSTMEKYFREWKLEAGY
Description: (§3) Nuclease assays with DCLRE1A and DCLRE1B (DNA cross-link repair enzymes 1A and 1B) ([33]) were performed according to a previously described method ([33]), employing a 21-nucleotide DNA oligonucleotide with a fluorescein label at its 3′ end. In brief, exonuclease activity was measured using ΔN-DCLRE1A (3.5 ng; 8 nM) or ΔC-DCLRE1B (1.5 ng; 4 nM) mixed with 1 pmol (1 μM) of 3′-fluorescein-labeled DNA substrate in 10 μl of 20 mM HEPES, pH 7.9, 50 mM KCl, 10 mM MgCl2, 0.5 mM dithiothreitol (DTT), 0.05% Triton-X, 0.1 mg/ml bovine serum albumin (BSA), and 5% glycerol.
(§4) [SNM1A] = [SNM1B] = 0.8 nM; [21nt fluor-ssDNA] = 1 µM, assay time = 20 mins

VIM-4 = VIM-4 (Pseudomonas aeruginosa, UniProt Q8KRJ3); test: MBL inhibition assay, VIM-4; assay type: biochemical
Description: (§5) Recombinant forms of NDM-1, VIM-2, VIM-4, SPM-1, IMP-1, and BcII MBLs were produced in Escherichia coli as described previously ([27], [28]).
as §2

[7] = biological target: human angiotensin-converting enzyme 2 (hACE-2) (Homo sapiens, UniProt Q9BYF1); test: Inhibition assay, hACE-2; assay type: biochemical; conditions: at 100 μM, standard assay conditions
Description: as §2

FEZ-1 = biological target: FEZ-1; set-up: method as in PMID 12507470; conditions: B3 MBL ref 23; cited from earlier work
DCLRE1B = biological target: T2, DCLRE1B (Homo sapiens, UniProt Q9H816); test: Nuclease assay, DCLRE1B; conditions: at 100 μM, standard assay conditions
T2 sequence (Q9H816 1-335 limits assumed): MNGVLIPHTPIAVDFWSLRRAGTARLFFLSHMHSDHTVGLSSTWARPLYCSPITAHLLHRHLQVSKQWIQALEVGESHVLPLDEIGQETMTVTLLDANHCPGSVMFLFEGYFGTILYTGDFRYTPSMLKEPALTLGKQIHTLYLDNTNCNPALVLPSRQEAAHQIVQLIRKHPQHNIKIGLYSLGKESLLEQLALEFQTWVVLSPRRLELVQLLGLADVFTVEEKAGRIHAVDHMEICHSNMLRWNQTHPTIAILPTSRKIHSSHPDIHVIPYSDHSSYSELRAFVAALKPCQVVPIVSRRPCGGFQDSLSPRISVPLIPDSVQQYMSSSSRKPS
Description: as §3, §4

CphA = conditions: B2 MBL ref 18; cited from earlier work
VIM-2 = biological target: T3, VIM-2 (Escherichia coli, UniProt Q5U7L7); test: biochemical; conditions: means ± standard deviations, three or more experiments
T3 construct: made in house; host or cells: Escherichia coli
Description: as §5, §2

NDM-1 = biological target: T4, NDM-1 (Klebsiella pneumoniae, UniProt C7C422); test: biochemical
T4 construct: made in house; host or cells: Escherichia coli
Description: as §5, §2

IMP-1 = IMP-1 (Serratia marcescens, UniProt P52699); test: MBL inhibition assay, IMP-1
Description: as §5, §2

BcII = BcII (Bacillus cereus, UniProt P04190); test: MBL inhibition assay, BcII
Description: as §5, §2

SPM-1 = SPM-1 (Pseudomonas aeruginosa, UniProt Q8G9Q0); test: MBL inhibition assay, SPM-1
Description: as §5, §2

[8] = test system: S. marcescens B13 (IMP-4); test: MIC, broth microdilution; assay type: cell-based, Serratia marcescens; conditions: captopril where added at 8 mg/liter
Description: as §1

[9] = test system: K. pneumoniae IR19 (NDM-1); test: MIC, broth microdilution; assay type: cell-based, Klebsiella pneumoniae; conditions: captopril where added at 8 mg/liter
Description: as §1

[10] = test system: K. pneumoniae B12 (IMP-4); test: MIC, broth microdilution; assay type: cell-based, Klebsiella pneumoniae; conditions: captopril where added at 8 mg/liter
Description: as §1

[11] = test system: K. pneumoniae HR8 (NDM-1); test: MIC, broth microdilution; assay type: cell-based, Klebsiella pneumoniae; conditions: captopril where added at 8 mg/liter
Description: as §1

[12] = test system: K. pneumoniae IR8 (NDM-1); test: MIC, broth microdilution; assay type: cell-based, Klebsiella pneumoniae; conditions: captopril where added at 8 mg/liter
Description: as §1

[13] = test system: K. pneumoniae A34 (VIM-4); test: MIC, broth microdilution; assay type: cell-based, Klebsiella pneumoniae; conditions: captopril where added at 8 mg/liter
Description: as §1

[14] = test system: K. pneumoniae B19 (IMP-4); test: MIC, broth microdilution; assay type: cell-based, Klebsiella pneumoniae; conditions: captopril where added at 8 mg/liter
Description: as §1

[15] = test system: K. pneumoniae A33 (VIM-4); test: MIC, broth microdilution; assay type: cell-based, Klebsiella pneumoniae; conditions: captopril where added at 8 mg/liter
Description: as §1

[16] = test system: K. pneumoniae A35 (VIM-4); test: MIC, broth microdilution; assay type: cell-based, Klebsiella pneumoniae; conditions: captopril where added at 8 mg/liter
Description: as §1

[17] = test system: K. pneumoniae N16 (NDM-1); test: MIC, broth microdilution; assay type: cell-based, Klebsiella pneumoniae; conditions: captopril where added at 8 mg/liter
Description: as §1

E. coli IR15 (NDM-1) = test: MIC, broth microdilution; assay type: cell-based, Escherichia coli; conditions: captopril where added at 8 mg/liter
Description: as §1

E. coli IR10 (NDM-1) = test: MIC, broth microdilution; assay type: cell-based, Escherichia coli; conditions: captopril where added at 8 mg/liter
Description: as §1

E. coli IR24 (NDM-1) = test: MIC, broth microdilution; assay type: cell-based, Escherichia coli; conditions: captopril where added at 8 mg/liter
Description: as §1

E. coli 25922 = test: MIC, broth microdilution; assay type: cell-based, Escherichia coli; conditions: E. coli 25922 (negative control); captopril where added at 8 mg/liter
Description: as §1, with “E. coli ATCC 25922 was used as a negative control.” left out, “Additionally, 5 Escherichia coli (with NDM-1), 10 Klebsiella pneumoniae (5 with NDM-1, 3 with VIM-4, and 2 with IMP-4), 1 Serratia marcescens (with IMP-4), and 2 Pseudomonas aeruginosa (with VIM-2 and AIM-1) isolates and E. coli ATCC 25922 were used in the test panel.” left out

Sequence of human angiotensin-converting enzyme 2 (hACE-2) (Q9BYF1 18-805): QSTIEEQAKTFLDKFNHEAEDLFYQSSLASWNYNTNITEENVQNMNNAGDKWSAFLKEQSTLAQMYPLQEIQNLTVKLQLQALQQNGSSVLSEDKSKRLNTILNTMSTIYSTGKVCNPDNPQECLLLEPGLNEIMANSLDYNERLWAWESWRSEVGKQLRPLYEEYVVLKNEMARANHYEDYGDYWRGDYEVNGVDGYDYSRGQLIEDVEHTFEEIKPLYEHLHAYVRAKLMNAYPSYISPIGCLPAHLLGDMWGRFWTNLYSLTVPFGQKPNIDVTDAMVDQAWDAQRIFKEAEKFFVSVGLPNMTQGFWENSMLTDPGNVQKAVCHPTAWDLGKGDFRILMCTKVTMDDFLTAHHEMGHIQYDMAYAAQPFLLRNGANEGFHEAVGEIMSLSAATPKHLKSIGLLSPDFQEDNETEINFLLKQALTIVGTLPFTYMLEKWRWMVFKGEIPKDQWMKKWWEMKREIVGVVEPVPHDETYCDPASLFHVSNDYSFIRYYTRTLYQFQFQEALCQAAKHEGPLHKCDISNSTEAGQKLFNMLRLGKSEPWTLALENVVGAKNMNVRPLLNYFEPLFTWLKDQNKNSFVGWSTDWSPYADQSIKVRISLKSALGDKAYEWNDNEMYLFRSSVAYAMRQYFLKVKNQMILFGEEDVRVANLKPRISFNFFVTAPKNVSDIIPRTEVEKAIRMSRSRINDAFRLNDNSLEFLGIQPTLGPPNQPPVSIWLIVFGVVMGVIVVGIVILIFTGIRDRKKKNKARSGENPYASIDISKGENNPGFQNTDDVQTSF
Sequence of BcII (P04190 31-257): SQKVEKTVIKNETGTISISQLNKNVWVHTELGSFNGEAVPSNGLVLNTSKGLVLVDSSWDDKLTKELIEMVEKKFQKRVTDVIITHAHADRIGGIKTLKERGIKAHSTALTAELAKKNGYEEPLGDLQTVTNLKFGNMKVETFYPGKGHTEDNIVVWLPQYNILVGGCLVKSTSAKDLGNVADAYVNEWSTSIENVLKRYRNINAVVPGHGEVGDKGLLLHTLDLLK
Sequence of IMP-1 (P52699 19-246 limits assumed): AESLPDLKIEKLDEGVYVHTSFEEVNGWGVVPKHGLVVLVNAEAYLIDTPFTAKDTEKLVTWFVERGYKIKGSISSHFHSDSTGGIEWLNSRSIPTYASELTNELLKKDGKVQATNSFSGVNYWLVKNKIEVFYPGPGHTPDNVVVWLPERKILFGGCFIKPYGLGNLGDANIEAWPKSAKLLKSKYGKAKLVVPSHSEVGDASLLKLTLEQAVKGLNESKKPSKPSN
Sequence of SPM-1 (Q8G9Q0 entry or part of it): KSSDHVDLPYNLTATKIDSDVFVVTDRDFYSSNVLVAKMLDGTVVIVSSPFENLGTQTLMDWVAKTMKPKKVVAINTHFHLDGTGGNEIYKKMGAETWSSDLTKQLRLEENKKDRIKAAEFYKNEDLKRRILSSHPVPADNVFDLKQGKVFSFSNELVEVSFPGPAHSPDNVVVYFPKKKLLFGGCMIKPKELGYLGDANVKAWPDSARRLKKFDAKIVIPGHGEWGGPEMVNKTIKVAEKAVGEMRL
T4 sequence (C7C422 29-270 limits assumed): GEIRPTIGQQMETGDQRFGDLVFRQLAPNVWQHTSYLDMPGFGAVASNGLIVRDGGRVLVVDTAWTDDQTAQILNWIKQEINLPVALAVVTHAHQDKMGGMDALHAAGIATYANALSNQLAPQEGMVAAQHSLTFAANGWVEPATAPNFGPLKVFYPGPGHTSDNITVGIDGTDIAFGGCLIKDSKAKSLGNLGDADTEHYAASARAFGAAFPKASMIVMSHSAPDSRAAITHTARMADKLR

Structure (SMILES) | MIC [1] [µg/mL] | MIC [2] [µg/mL] | MIC [3] [µg/mL] | MIC [4] [µg/mL] | inhibition of hHAGH [6] | inhibition of DCLRE1A (DCLRE1A) | IC50 (VIM-4) [nM] | inhibition of hACE-2 [7] | inhibition of DCLRE1B (DCLRE1B) | also measured
CC(C)(O/N=C(\C(=O)N[C@@H]1C(=O)N2C(C(=O)[O-])=C(C[n+]3ccccc3)CS[C@H]12)c1csc(N)n1)C(=O)O [CFZ, ceftazidime] | 32 (≈ 58.5 µM) | 128 (≈ 234 µM) | 512 (≈ 937 µM) | 32 (≈ 58.5 µM) | – | – | – | – | – | MIC [5]: 512 µg/mL (≈ 937 µM)
C[C@@H](CS)C(=O)N1CCC[C@H]1C(=O)O [D-Captopril, (2S)-1-[(2R)-2-methyl-3-sulfanylpropanoyl] pyrrolidine-2-carboxylic acid] | – | – | – | – | no inhibition | no inhibition | 1700 ± 400 | no inhibition | no inhibition | Ki (FEZ-1): 400 µM; Ki (CphA): 72 µM
O=C(O)C1CCCN1C(=O)c1ccccc1S [D-MBP, 1-(2-mercaptobenzoyl)pyrrolidine-2-carboxylic acid] | – | – | – | – | no inhibition | no inhibition | – | no inhibition | no inhibition | IC50 (VIM-2): > 500 µM; IC50 (NDM-1): > 500 µM; IC50 (IMP-1): > 500 µM; IC50 (BcII): > 500 µM; IC50 (SPM-1): > 500 µM
C[C@H](CS)C(=O)N1CCC[C@H]1C(=O)O [L-Captopril, (2S)-1-[(2S)-2-Methyl-3-sulfanylpropanoyl] pyrrolidine-2-carboxylic acid] | – | – | – | – | no inhibition | no inhibition | 3900 ± 500 | no inhibition | no inhibition | –
C[C@@H](O)[C@H]1C(=O)N2C(C(=O)O)=C(S[C@@H]3CN[C@H](C(=O)N(C)C)C3)[C@H](C)[C@H]12 [MEM, meropenem] | 8 (≈ 20.9 µM) | 1 (≈ 2.61 µM) | 64 (≈ 167 µM) | 2 (≈ 5.22 µM) | – | – | – | – | – | MIC [8]: 4 µg/mL (≈ 10.4 µM); MIC [9]: 8 µg/mL (≈ 20.9 µM); MIC [10]: 8 µg/mL (≈ 20.9 µM); MIC [11]: 64 µg/mL (≈ 167 µM); MIC [12]: 16 µg/mL (≈ 41.7 µM); MIC [13]: 8 µg/mL (≈ 20.9 µM); MIC [14]: 32 µg/mL (≈ 83.4 µM); MIC [15]: 8 µg/mL (≈ 20.9 µM); MIC [16]: 16 µg/mL (≈ 41.7 µM); MIC [17]: 32 µg/mL (≈ 83.4 µM); MIC (E. coli IR15 (NDM-1)): 8 µg/mL (≈ 20.9 µM); MIC (E. coli IR10 (NDM-1)): 64 µg/mL (≈ 167 µM); MIC (E. coli IR24 (NDM-1)): 512 µg/mL (≈ 1340 µM); MIC (E. coli 25922): < 0.125 µg/mL
